Key:
[1] = biological target: T1, free PSA (Homo sapiens, UniProt P07288); experiment: Enzyme activity assay of PSA with chymotrypsin substrate Suc-Arg-Pro-Tyr-pNA; assay type: biochemical; details: for minimum peptide concentration affecting the activity: PSA 333 nM
T1 construct: purchased Scripps Laboratories P0725
Method: The enzyme activity of free PSA was studied in the presence of capture agent and the chymotrypsin substrate Suc-Arg-Pro-Tyr-pNA (AnaSpec, San Jose, Calif.) (see, e.g., Wu 2000). PSA (333 nM) was incubated with a 1-100-fold fold molar excess of capture agent in TBS (25 mM Tris, 150 mM NaCl) buffer, pH 7.8, for 1 hour at 23° C. Separately, the inhibitory effect of Zn^2+ on the enzyme activity of PSA was studied by including 1-200 μM ZnCl2 in the reaction buffer as a control. After addition of substrate to a final concentration 0.4 mM, the absorbance was monitored at 5-min intervals over 80 min at 405 nm on a Beckman Coulter DTX880 photometer (Brea, Calif.). Enzyme activity of PSA was tested in the absence of both Zn^2+ and capture agent to provide a measure of basal activity. All assays were performed in triplicate.

[2] = biological target: T1, free PSA; experiment: Dot blot of serially diluted free PSA probed with biotinylated capture agent; assay type: binding; details: for lower limit of detection: free PSA on nitrocellulose, 0.1 μM capture agent
Method: Serially diluted free PSA (Scripps Laboratories #P0725) in PBS pH 7.4 was applied to nitrocellulose by micropipette. The membrane was blocked at 4° C. for 2 hours in 5% non-fat dry milk in TBS (25 mM Tris, 150 mM NaCl, pH 7.25). The membrane was washed with TBS (3×). The biotinylated PSA capture agent was prepared at 0.1 μM in 0.5% milk in TBS+0.03% DMSO (v/v) and incubated over the membrane at 4° C. overnight. After washing with TBS (3×), the membrane was further subjected to 0.1 μg/mL HRP-conjugated Streptavidin (Abcam) in TBS containing 0.02% Tween20 (v/v) for 30 min at 4° C.

[3] = biological target: T1, free PSA; experiment: Sandwich ELISA with capture agent as detection agent, paired with PS6 capture antibody; assay type: binding
Method: MAXISORP™ microtiter plates were coated with anti-human PSA (PS6, Abcam) at 10 μg/mL in PBS pH 7.4 for 2 hours at room temperature. After washing each microwell with PBS (3×), the plate was filled with 5% non-fat dry milk in TBS (25 mM Tris, 150 mM NaCl, pH 7.25) and blocked for 2 h at room temperature. Serially diluted free PSA (Scripps Laboratories #P0725) in 1% BSA in TBS was incubated across the microtiter plate for 2 h at room temperature. The plate was washed with 1% BSA in TBS (5×), and then 2 μM biotinylated capture agent in 1% BSA in TBS+0.1% DMSO (v/v) was incubated for 1 hour at room temperature. After washing all microwells with 1% BSA in TBS (5×), 0.1 μg/mL Streptavidin Poly-HRP conjugate (Pierce, Ill.) in 1% BSA in TBS was incubated for 30 min at room temperature. The plate was washed with 1% BSA in TBS (10×), followed by TBS (2×), and then developed by adding QuantaRed™ Enhanced Chemifluorescent HRP Substrate (Pierce, Ill.). Using an excitation wavelength of 535 nm, fluorescent emission at 595 nm was recorded by Beckman Coulter DTX880 photometer (Brea, Calif.) as a function of target concentration. The titration curves were fit using a four-parameter regression curve fitting program (Origin 8.5, Northampton, Mass.). Assays were performed in triplicate.

[4] = biological target: T1, free PSA; experiment: Pull-down assay and Western blot; assay type: binding; details: 1 μg free PSA in TBS buffer
Method: The pull-down assay assessed the specificity of a PSA capture agent by measuring its ability to purify a protein from complex media; bound to the protein in buffer or human serum in solution. The PSA/capture agent complex was then physically isolated from the sample with solid-phase affinity resins. The captured samples were separated by SDS-PAGE for Western blot analysis.
Pull-down detection of PSA was performed using a modified immunoprecipitation technique that incorporated PSA capture agent rather than antibody. […] A third sample contained biotinylated PSA capture agent (0.3-0.5 μg/mL) and 1 μg free PSA in 2 mL TBS, and similarly interacted at 4° C. overnight.
Proteins were captured by BSA-blocked Dynabeads® M-280 Streptavidin (Invitrogen, #112-05D) under rotation at 4° C. for 4 hours (50 μL of 50% slurry per pull-down condition). Proteins were eluted from beads in reducing Laemmli buffer, and beads were separated from the serum or buffer by DynaMag™-Spin magnet (Invitrogen, #123-20D). Samples were subjected to 4-20% SDS-PAGE separation and electrophoretically transferred to a nitrocellulose membrane in 25 mM Tris, 192 mM Glycine, pH 8.3, containing 20% (v/v) methanol (Bio-Rad Laboratories, Hercules, Calif.) at 100 V for 45 min. Following transfer, the nitrocellulose membrane was blocked at 4° C. for 2 hours in 5% non-fat dry milk in TBS. […]

T1 sequence (P07288 25-261): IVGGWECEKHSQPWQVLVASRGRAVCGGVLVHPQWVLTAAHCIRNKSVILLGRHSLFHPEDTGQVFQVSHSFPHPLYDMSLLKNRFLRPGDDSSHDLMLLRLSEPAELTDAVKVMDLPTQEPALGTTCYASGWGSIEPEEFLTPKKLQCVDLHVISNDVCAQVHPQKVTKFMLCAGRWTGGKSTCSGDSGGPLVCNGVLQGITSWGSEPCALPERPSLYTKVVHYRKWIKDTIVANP

## [Cl-].[Cl-].[Zn+2] [Zn^2+, zinc chloride, reference compound]
[1]
  inhibition of PSA enzyme activity: inhibits the enzyme activity of PSA

## biotin-PEG5-cyclic(CVFAHNYDYLVC) [Anchor Ligand]
[1]
  minimum peptide concentration affecting the activity: 0.250 µM

## biotin-PEG5-cyclic(CVFAHNYDYLVC)-Tz5-Gllffk [1,5Tz-biligand]
[2]; dot blot, triazole regioisomers
  limit of detection compared to 1,4Tz-biligand: improved limit of detection
[2]
  lower limit of detection: 0.14 µg
[1]
  minimum peptide concentration affecting the activity: 0.159 µM

## biotin-PEG5-cyclic(CVFAHNYDYLVC)-Tz5-Gllffk-Tz5-rrivk [PSA capture agent triligand]
[3]; free PSA, sandwich ELISA with PS6 capture antibody
  limit of quantitation (LOQ): ~4 ng/mL
[3]; sandwich ELISA
  enhanced sensitivity over the PSA capture agent biligand: > 2 fold
[2]; dot blot
  performance compared to anti-human PSA monoclonal antibody PS1: superior performance
  sensitivity compared to commercial PSA monoclonal antibodies PS2, PS6: less sensitive
[2]
  lower limit of detection: 0.14 µg
[4]
  pull-down detection of free PSA: detected free PSA in buffer

## biotin-PEG5-cyclic(CVFAHNYDYLVC)-Tz-4-Gllffk [1,4Tz-biligand]
[2]
  lower limit of detection: 0.28 µg

— US8841083B2, “PSA capture agents, compositions, methods and preparation thereof” (California Institute of Technology, priority 2011, dated 2014)
